Laboratory results from paper PMC3055912, “A Method for Structure–Activity Analysis of Quorum-Sensing Signaling Peptides from Naturally Transformable Streptococci” (Biological Procedures Online, 2009).
Peptide text beside a SMILES is read from it.

Experiments:
[1] = system: nlmAB promoter (PnlmAB::lacZ) in comC mutant SMdC; assay: nlmAB-lacZ reporter β-gal activity, strain SMdC-PnlmAB; format: cell-based, Streptococcus mutans; details: for time for which the high level of β-gal activity is maintained / time of highest level of β-gal activity after addition of peptide: SMdC-PnlmAB, time-course experiment
Excerpt: (§1) To assay QS activation in response to addition of a peptide, we constructed two types of lacZ transcriptional reporter strains that represented two levels of QS-activated gene expression. The first was a lacZ reporter gene fused to the comDE promoter, which allowed monitoring of the activity of the comDE promoter in response to a test peptide. The second strain was a lacZ reporter gene fused to the promoter of nlmAB, the gene encoding a nonlantibiotic bacteriocin and its expression directly controlled by the ComE [6, 22]. This strain allowed assay of comDE-controlled bacteriocin production.
For the second reporter strain, we generated a chromosomal nlmAB–lacZ fusion strain by transforming a PnlmAB::lacZ fusion construct pOMZ47 [6] into both comC mutant SMdC and wild-type GS5. The resulting reporter strains were confirmed by PCR and sequencing of the fusion sites as described previously. The confirmed reporter strains were respectively named SMdC-PnlmAB (PnlmAB::lacZ, comC^-, Kan^r, Spec^r) and SMGS5-PnlmAB (PnlmAB::lacZ, Kan^r). The strain SMGS5-PnlmAB was used a positive control.
A lacZ reporter assay was performed to monitor quorum-sensing activation using the same method as described previously. The newly constructed lacZ reporter strains were used to assay and quantify β-galactosidase activity in response to test peptides. Aliquots of samples were taken to prepare cell lysates at different time points T0, T15, T30, T60, and T120 after addition of a test peptide. Protein concentrations of the supernatants were determined by Bio-Rad protein assay (Bio-Rad). Specific β-gal activities (A420 min^-1 mL^-1 mg^-1 protein) were calculated from triplicate samples from two independent experiments. The data from the β-gal activity experiments were then normalized against negative or background controls and plotted as percentages of maximal activation versus log peptide concentrations. The half maximal activation concentration (AC50) was determined from the sigmoidal dose–response curve using Prism 4 (Graphpad, San Diego, CA, USA).

[2] = system: comDE promoter (PcomDE::lacZ) in comC mutant SMdC; assay: comDE-lacZ reporter β-gal activity, strain SMdC-pYH2; format: cell-based, Streptococcus mutans; details: background control SMdC-pSL showed no significant difference
Excerpt: as §1
For the first reporter strain, we simply transformed previously constructed vector pYH2 [10] into the comC mutant (SMdC) to generate SMdC-pYH2 (PcomDE::lacZ, comC^-, Spec^r, Kan^r). pYH2 was constructed in such a way that the comDE promoter was fused to a promoterless lacZ gene on the backbone of Streptococcus–Escherichia coli shuttle vector pSL. […] These strains were then assessed for lacZ reporter activity in response to addition of peptides.
A lacZ reporter assay was performed to monitor quorum-sensing activation using the same method as described previously. The newly constructed lacZ reporter strains were used to assay and quantify β-galactosidase activity in response to test peptides. […] Protein concentrations of the supernatants were determined by Bio-Rad protein assay (Bio-Rad). […]

[3] = system: S. mutans comC mutant SMdC (indicator strain Streptococcus sanguinis SK108); assay: QS-controlled bacteriocin production, agar plate overlay assay; format: cell-based; details: for level of bacteriocins induced compared with wild-type GS5: comC mutant SMdC with peptide, inhibitory zone against S. sanguinis SK108, Figure 5
Experimental: The S. mutans comC mutant SMdC as well as its parent GS5 and wild-type strain UA159 (positive controls) were used to assay for bacteriocin production using a modified agar plate method. Briefly, an aliquot of mid-log phase cells of the S. mutans wild-type strains and mutant SMdC grown under a condition with or without use of CSP or a test peptide were stabbed onto THYE agar plates. The plates were incubated anaerobically at 37°C for 6 h before carefully overlaid with 100 μL of cell suspension (about 10^6 CFU/mL^-1) of an indicator strain Streptococcus sanguinis SK108. The plates were further incubated anaerobically at 37°C for 24 h before inspection of bacteriocin production. The S. mutans strains showing an inhibitory zone around the stabs were scored as positive for bacteriocin production. The plates were then photographed for records.

[4] = aqueous buffer 50 mM K2HPO4/KH2PO4 pH 7.0; NMR needs 1.0 to 10 mM peptide
Experimental: For NMR studies, buffers, co-solvents, and additives were hydrogen-free or deuterated. Samples could be dissolved in as little as 10 μL, but typically, spectrometers were designed for sample volumes of at least 500 μL. Due to the inherently low sensitivity, concentrations of peptides ranged from 1.0 to 10 mM [13].
In our study, synthetic peptides CSP (UA159sp) and TPC3 for CD and NMR were dissolved in 95/5/0%, 70/0/30%, 30/0/70%, or 0/0/100% aqueous buffer/D2O/TFE-d2, or 95/5 aqueous buffer/D2O with 300 mM DPC-d38 (98 atom %D), where TFE refers to trifluoroethanol and DPC-d38 refers to perdeuterated dodecylphosphocholine [10, 13]. The aqueous buffer used for sample preparation contained 50 mM K2HPO4/KH2PO4 at pH 7.0. The concentration of peptides for solutions containing 100% TFE-d2 or DPC-d38 was 2 and 5 mM.

[5] = system: comDE promoter (PcomDE::lacZ) in comC mutant SMdC; details: SMdC-pYH2; cited from earlier work
Experimental: We also used this mutant (SMdC) as a host to generate two types of lacZ transcriptional reporter fusion strains to assay the promoter activity of QS-controlled target genes, comDE and nlmAB, in response to addition of CSP. The lacZ reporter strain, SMdC-pYH2 (PcomDE::lacZ, comC^-, Spec^r, Kan^r), along with its background control strain SMdC-pSL (comC^-, Spec^r, Kan^r) were then assayed for β-galactosidase activity.

[6] = system: S. mutans comC mutant SMdC; assay: CSP-dependent transformation (genetic competence) assay; format: cell-based, Streptococcus mutans; details: data not shown
Excerpt: To determine if synthetic peptides activated quorum sensing for induction of genetic competence, we used the comC deletion mutant that was unable to produce, but still responded to CSP, to assay peptide-dependent genetic transformation using the method as described previously. A streptococcal suicide vector pVA-gtfA, which harbored a 2.4-kb fragment of the S. mutans gtfA gene and an erythromycin resistance marker, was used as transforming DNA. The wild-type GS5 was used as a positive control, while both ComC (SMdC) and ComE mutants (SMdE) were used as negative controls. The wild-type strain was grown on Todd–Hewitt yeast extract (THYE) medium, whereas the mutants were maintained on THYE plus spectinomycin. When culture reached to early mid-log phase (OD600 ≈ 0.25), an aliquot of CSP was added into the culture at a final concentration of 50 nM (AC50 ≈ 0.25 nM). […] Transformation frequency was expressed as percentage of transformants against total viable recipient cells per milliliter cell suspension. […]
7. All the plates are incubated at 37°C for 2 days before assessment of transformation frequency, which is expressed as percentages of transformants (erythromycin-resistant colonies) against total recipient cells per […] cell suspension. […]

[7] = target: quorum sensing (ComCDE signaling) in S. mutans lacZ reporter strains (Streptococcus mutans serotype c, UniProt Q8DS94); details: truncated peptides; cited from earlier work
Sequence of quorum sensing (ComCDE signaling) in S. mutans lacZ reporter strains (Q8DS94 entry or part of it): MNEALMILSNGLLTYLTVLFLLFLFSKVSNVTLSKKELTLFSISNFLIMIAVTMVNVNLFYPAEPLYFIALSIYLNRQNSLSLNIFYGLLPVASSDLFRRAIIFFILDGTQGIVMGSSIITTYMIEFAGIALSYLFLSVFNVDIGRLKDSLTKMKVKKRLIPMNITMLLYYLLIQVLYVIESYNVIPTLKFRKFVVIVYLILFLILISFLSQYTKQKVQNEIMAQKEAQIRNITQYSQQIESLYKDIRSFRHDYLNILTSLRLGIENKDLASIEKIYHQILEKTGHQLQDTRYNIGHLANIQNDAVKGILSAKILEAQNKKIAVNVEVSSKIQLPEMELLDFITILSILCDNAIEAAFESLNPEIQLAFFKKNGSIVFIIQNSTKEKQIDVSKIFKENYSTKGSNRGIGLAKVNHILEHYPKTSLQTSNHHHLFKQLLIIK
Excerpt: Based on the three-dimensional structures of S. mutans wild-type signaling peptide UA159sp (CSP) and C-terminally truncated peptide TPC3 from mutant JH1005 defective in genetic competence, we designed and synthesized a series of truncated peptides and peptides with amino acid substitutions. […] The C-terminal structural motif consisting of a sequence of polar hydrophobic charged residues is crucial for activating the signal transduction pathway, while the core α-helical structure ext ...

CC(C)C[C@H](NC(=O)[C@H](C)NC(=O)[C@H](CCC(N)=O)NC(=O)[C@@H](NC(=O)[C@H](Cc1ccccc1)NC(=O)[C@H](CO)NC(=O)[C@H](CCCNC(=N)N)NC(=O)[C@H](CC(N)=O)NC(=O)[C@H](Cc1ccccc1)NC(=O)[C@H](CC(C)C)NC(=O)[C@H](CCCNC(=N)N)NC(=O)[C@H](Cc1ccccc1)NC(=O)[C@H](Cc1ccccc1)NC(=O)[C@@H](NC(=O)[C@H](CO)NC(=O)[C@H](CC(C)C)NC(=O)[C@H](CO)NC(=O)CNC(=O)[C@@H](N)CO)[C@@H](C)O)[C@@H](C)O)C(=O)NCC(=O)N[C@@H](CCCCN)C(=O)O [CSP (UA159sp), reference compound] (H-SGSLSTFFRLFNRSFTQALGK-OH)
time for which the high level of β-gal activity is maintained [1]: at least 2 h | time of highest level of β-gal activity after addition of peptide [1]: around 90 min | induction of β-gal activity upon addition of peptide [2]: induced to express predicted β-gal activity | level of bacteriocins induced compared with wild-type GS5 [3]: induce the same level of bacteriocins as GS5 | solubility in water for NMR [4]: not soluble enough for extensive NMR studies | time after addition at which expression of β-gal activity declined [5]: around 40 min

CC(C)C[C@H](NC(=O)[C@H](C)NC(=O)[C@H](CCC(N)=O)NC(=O)[C@@H](NC(=O)[C@H](Cc1ccccc1)NC(=O)[C@H](CO)NC(=O)[C@H](Cc1ccccc1)NC(=O)[C@H](CC(N)=O)NC(=O)[C@H](Cc1ccccc1)NC(=O)[C@H](CC(C)C)NC(=O)[C@H](CCCNC(=N)N)NC(=O)[C@H](Cc1ccccc1)NC(=O)[C@H](Cc1ccccc1)NC(=O)[C@@H](NC(=O)[C@H](CO)NC(=O)[C@H](CC(C)C)NC(=O)[C@@H](N)CO)[C@@H](C)O)[C@@H](C)O)C(=O)NCC(=O)O [SPA-18] (H-SLSTFFRLFNFSFTQALG-OH; N-terminus and C-terminus assumed)
time for which the high level of β-gal activity is maintained [1]: at least 2 h | time of highest level of β-gal activity after addition of peptide [1]: around 90 min | replacement of CSP in activating quorum sensing ([1]; β-gal activity of SMdC-PnlmAB, Figure 4): could completely replace CSP (UA159sp) | replacement of CSP in inducing bacteriocin production ([3]; Figure 5): could completely replace CSP (UA159sp) | level of bacteriocins induced compared with wild-type GS5 [3]: induce the same level of bacteriocins as GS5 | replacement of CSP in inducing genetic competence [6]: could completely replace CSP (UA159sp)

CC(C)C[C@H](NC(=O)[C@H](C)NC(=O)[C@H](CCC(N)=O)NC(=O)[C@@H](NC(=O)[C@H](Cc1ccccc1)NC(=O)[C@H](CO)NC(=O)[C@H](CCCNC(=N)N)NC(=O)[C@H](CC(N)=O)NC(=O)[C@H](Cc1ccccc1)NC(=O)[C@H](CC(C)C)NC(=O)[C@H](CCCNC(=N)N)NC(=O)[C@H](Cc1ccccc1)NC(=O)[C@H](Cc1ccccc1)NC(=O)[C@@H](NC(=O)[C@H](CO)NC(=O)[C@H](CC(C)C)NC(=O)[C@H](CO)NC(=O)CNC(=O)[C@@H](N)CO)[C@@H](C)O)[C@@H](C)O)C(=O)NCC(=O)O [TPC1] (H-SGSLSTFFRLFNRSFTQALG-OH; N-terminus and C-terminus assumed)
agonist function, AC50 compared with CSP [7]: functioned as agonists with AC50 values similar to CSP

CC(C)C[C@H](NC(=O)[C@H](CCCNC(=N)N)NC(=O)[C@H](Cc1ccccc1)NC(=O)[C@H](Cc1ccccc1)NC(=O)[C@@H](NC(=O)[C@H](CO)NC(=O)[C@H](CC(C)C)NC(=O)[C@@H](NC(=O)CNC(=O)[C@@H](N)CO)[C@@H](C)O)[C@@H](C)O)C(=O)N[C@@H](Cc1ccccc1)C(=O)N[C@@H](CC(N)=O)C(=O)N[C@@H](CCCNC(=N)N)C(=O)N[C@@H](CO)C(=O)N[C@@H](Cc1ccccc1)C(=O)N[C@H](C(=O)N[C@@H](CCC(N)=O)C(=O)N[C@@H](C)C(=O)O)[C@@H](C)O [TPC3 (JH1005sp)] (H-SGTLSTFFRLFNRSFTQA-OH)
solubility in water for NMR [4]: not soluble enough for extensive NMR studies

CC(C)C[C@H](NC(=O)[C@H](C)NC(=O)[C@H](CCC(N)=O)NC(=O)[C@@H](NC(=O)[C@H](Cc1ccccc1)NC(=O)[C@H](CO)NC(=O)[C@H](CCCNC(=N)N)NC(=O)[C@H](CC(N)=O)NC(=O)[C@H](Cc1ccccc1)NC(=O)[C@H](CC(C)C)NC(=O)[C@H](CCCNC(=N)N)NC(=O)[C@H](Cc1ccccc1)NC(=O)[C@H](Cc1ccccc1)NC(=O)[C@@H](NC(=O)[C@H](CO)NC(=O)[C@H](CC(C)C)NC(=O)[C@@H](N)CO)[C@@H](C)O)[C@@H](C)O)C(=O)NCC(=O)N[C@@H](CCCCN)C(=O)O [TPN2] (H-SLSTFFRLFNRSFTQALGK-OH; N-terminus and C-terminus assumed)
agonist function, AC50 compared with CSP [7]: functioned as agonists with AC50 values similar to CSP
